Results reported in PMC9603010 (ACS Bio & Med Chem Au, 2022).
Where a name gives a salt, the structure may show the parent alone.

Assays:
[1] = system: SARS-CoV-2 (USA-WA1/2020); assay type: cell-based
HEK293T cells = details: 48 h, multiple concentrations

Structure (SMILES)	reduction of the number of infected cells compared to vehicle [1]	impact on cell viability (HEK293T cells)
c1ccc2c(c1)OCC(C1=NCCN1)O2 (stereo not drawn) [idazoxan hydrochloride, reference compound]	more than 90%	
O=C(O[C@@H]1Cc2c(O)cc(O)cc2O[C@@H]1c1cc(O)c(O)c(O)c1)c1cc(O)c(O)c(O)c1 [epigallocatechin gallate]		without significant impact on cell viability
NC(CO)C(=O)NNCc1ccc(O)c(O)c1O (stereo not drawn) [benserazide, reference compound]		without significant impact on cell viability
c1ccc2c(c1)OCC(C1=NCCN1)O2 (stereo not drawn) [idazoxan, reference compound]		without significant impact on cell viability
C=C1C(=O)O[C@H]2[C@H]1CC/C(C)=C/CC[C@@]1(C)O[C@@H]21 [parthenolide]		without significant impact on cell viability
COc1c(-c2coc3cc4c(cc3c2=O)CC(O)C(C)(C)O4)ccc2c1C=CC(C)(C)O2 (stereo not drawn) [mundulone]		without significant impact on cell viability
